From patent US20080200404A1, “Novel Antimalarial 9A-Carbamoyl-Aminoalkyl and 9A-Thiocarbamoyl-Aminoalkyl Azalides” (priority 2005, published 2008)
Converted amounts (≈) assume the structure as drawn.

Legend:
Assay type in all cases: cell-based
[1] = system: Plasmodium falciparum clone CDC/Indochina III (W-2); test: In vitro antimalarial [3H]-hypoxanthine incorporation serial dilution assay, W2; conditions: Plasmodium falciparum; P. falciparum W2, 72 hours exposure
Description: The in vitro screens for intrinsic antimalarial activity were based on modifications of the procedures described by Desjardins R E, Canfield C J, Haynes J D, Chulay J D. (Quantitative assessment of antimalarial activity in vitro by a semiautomated microdilution technique. Antimicrob Agents Chemother. 1979 December; 16(6):710-8.), Chulay J D, Haynes J D, Diggs C L. (Plasmodium falciparum: Assessment of in vitro growth by [3H]hypoxanthine incorporation. Exp. Parasitol. 1983 55:138-146.), and Milhous W K, Weatherly N F, Bowdre J H, Desjardins R E. (In vitro activities of and mechanisms of resistance to antifol antimalarial drugs. Antimicrob Agents Chemother. 1985 April; 27(4):525-30.). The system was limited to the assessment of the intrinsic activity against the erythrocytic asexual life cycle (blood schizontocides). Two Plasmodium falciparum clones from CDC/Indochina III (W-2) and CDC/Sierra Leone I (D-6) (Oduola A M, Weatherly N F, Bowdre J H, Desjardins R E. Plasmodium falciparum: cloning by single-erythrocyte micromanipulation and heterogeneity in vitro. Exp Parasitol. 1988 66(1):86-95.) were used for all assays. TM91C235, a multiple drug resistant isolate from Thailand, was used for the prescreening assay. W-2 is resistant to chloroquine, quinine, and pyrimethamine and susceptible to mefloquine. D-6 tends to be more resistant to mefloquine and susceptible to chloroquine, quinine, and pyrimethamine. All documents cited in this paragraph are incorporated by reference in their entirety.
All parasites were maintained in continuous long term cultures in RPMI-1640 medium supplemented with 6% washed human A positive (A+)(erythrocytes, 25 mM Hepes, […], and 10% heat inactivated A+human plasma or ALBUMAX® (lipid-rich bovine serum albumin; Invitrogen, Carlsbad, Calif.). All cultures and assays were conducted at 37° C. under an atmosphere of 5% CO2 and 5% O2, with a balance of N2.
After the preincubation, [^3H]-hypoxanthine was added to each well of the MTP. (The assay relies on the incorporation of radiolabeled hypoxanthine by the parasites, which indicates reproduction, and inhibition of isotope incorporation was attributed to activity of known or candidate antimalarial drugs). After 72 hr of total incubation time, the MTP were frozen to lyse the erythrocytes and parasites. The parasite DNA was recovered by harvesting the lysate onto glass-fiber filter plates using a Packard FilterMate™ Cell Harvester. The radioactivity was counted on a Packard TopCount™ microplate scintillation counter. The results were recorded as counts per minutes (CPM) per well at each drug concentration divided by the arithmetic mean of the CPM from the three untreated infection parasite control wells.
The serial dilution assay was conducted using the same assay conditions and stock solution of the compound used for the preliminary screen, described above. Both the D-6 and the W-2 clones were used. The compounds were diluted two-fold over 11 different concentration ranges with a starting concentration that was based on the preliminary screen. For each drug, the concentration response profile was determined and 50% inhibitory concentrations (IC50) were determined by using a non-linear, logistic dose response analysis program. […] For each assay, the IC50 for each clone was determined against the known antimalarials chloroquine and mefloquine. These control values established the compound's relative parasite susceptibility profile compared to known antimalarials. […]
The in vitro potency of the compounds has been compared with that of azithromycin to better gauge compounds suitable for further testing. As described above, parasites were exposed for 72 hours. Data from the in vitro potency tests of azithromycin against the three parasite strains have been averaged, and these numbers have been used for identification of “active” macrolide compounds.

[2] = system: Plasmodium falciparum clone CDC/Sierra Leone I (D-6); test: In vitro antimalarial [3H]-hypoxanthine incorporation serial dilution assay, D6; conditions: Plasmodium falciparum, D6, 72 h, P. falciparum D6, 72 hours exposure; read-out: IC50 D6
How it was run: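 Blood-stage cultures in RPMI-1640 with 6% A+ erythrocytes and human plasma or ALBUMAX, 37° C under 5% CO2/5% O2. Compounds in two-fold dilutions over 11 concentrations; [3H]-hypoxanthine incorporation after 72 h total incubation, CPM normalised to untreated parasite controls; IC50 by non-linear logistic fit.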

[3] = system: Plasmodium falciparum TM91C235; test: In vitro antimalarial [3H]-hypoxanthine incorporation assay, TM91C235; conditions: Plasmodium falciparum; P. falciparum TM91C235 (multiple drug resistant isolate), 72 hours exposure
How it was run: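 Multidrug-resistant P. falciparum TM91C235 was run at 0.4% parasitemia and 1% hematocrit in folate/PABA-free RPMI-1640 with ALBUMAX, at 37° C under 5% CO2/5% O2. Compound was tested in duplicate at 25,000, 2,500 and 25 ng/ml, preexposed 48 h, then [3H]-hypoxanthine was added (72 h total). Counts are expressed relative to untreated parasite controls.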

IC50 [1] [µg/mL] | IC50 [2] [µg/mL] | IC50 [3] [µg/mL] | Structure (SMILES)
0.0671 (≈ 0.0713 µM) | 0.311 (≈ 0.33 µM) | 0.154 (≈ 0.164 µM) | CC[C@H]1OC(=O)[C@H](C)[C@@H](O[C@H]2C[C@@](C)(OC)[C@@H](O)[C@H](C)O2)[C@H](C)[C@@H](O[C@@H]2O[C@H](C)C[C@H](N(C)C)[C@H]2O)[C@](C)(O)C[C@@H](C)CN(CCCNC(=S)Nc2ccc(C)cc2)[C@H](C)[C@@H](O)[C@]1(C)O [Example 97]
0.0688 (≈ 0.0728 µM) | 0.302 (≈ 0.32 µM) | 0.131 (≈ 0.139 µM) | CC[C@H]1OC(=O)[C@H](C)[C@@H](O[C@H]2C[C@@](C)(OC)[C@@H](O)[C@H](C)O2)[C@H](C)[C@@H](O[C@@H]2O[C@H](C)C[C@H](N(C)C)[C@H]2O)[C@](C)(O)C[C@@H](C)CN(CCCNC(=S)Nc2ccc(F)cc2)[C@H](C)[C@@H](O)[C@]1(C)O [Example 99]
0.102 (≈ 0.107 µM) | 0.284 (≈ 0.298 µM) | 0.275 (≈ 0.288 µM) | CC[C@H]1OC(=O)[C@H](C)[C@@H](O[C@H]2C[C@@](C)(OC)[C@@H](O)[C@H](C)O2)[C@H](C)[C@@H](O[C@@H]2O[C@H](C)C[C@H](N(C)C)[C@H]2O)[C@](C)(O)C[C@@H](C)CN(CCCNC(=S)NC(=O)c2ccccc2)[C@H](C)[C@@H](O)[C@]1(C)O [Example 100]
0.0919 (≈ 0.0962 µM) | 0.425 (≈ 0.445 µM) | 0.24 (≈ 0.252 µM) | CCc1ccccc1NC(=S)NCCCN1C[C@H](C)C[C@@](C)(O)[C@H](O[C@@H]2O[C@H](C)C[C@H](N(C)C)[C@H]2O)[C@@H](C)[C@H](O[C@H]2C[C@@](C)(OC)[C@@H](O)[C@H](C)O2)[C@@H](C)C(=O)O[C@H](CC)[C@@](C)(O)[C@H](O)[C@H]1C [Example 101]
0.0514 (≈ 0.0534 µM) | 0.18 (≈ 0.188 µM) | 0.103 (≈ 0.108 µM) | CC[C@H]1OC(=O)[C@H](C)[C@@H](O[C@H]2C[C@@](C)(OC)[C@@H](O)[C@H](C)O2)[C@H](C)[C@@H](O[C@@H]2O[C@H](C)C[C@H](N(C)C)[C@H]2O)[C@](C)(O)C[C@@H](C)CN(CCCNC(=S)Nc2ccc(Cl)cc2)[C@H](C)[C@@H](O)[C@]1(C)O [Example 103]

The next lines start with the molecule.

Structure (SMILES) | IC50 [1] [µg/mL] | IC50 [2] [µg/mL] | IC50 [3] [µg/mL]
CC[C@H]1OC(=O)[C@H](C)[C@@H](O[C@H]2C[C@@](C)(OC)[C@@H](O)[C@H](C)O2)[C@H](C)[C@@H](O[C@@H]2O[C@H](C)C[C@H](N(C)C)[C@H]2O)[C@](C)(O)C[C@@H](C)CN(CCCNC(=S)Nc2ccc(C#N)cc2)[C@H](C)[C@@H](O)[C@]1(C)O [Example 98] | 0.0476 (≈ 0.05 µM) | 0.126 (≈ 0.132 µM) | 0.0745 (≈ 0.0782 µM)
CC[C@H]1OC(=O)[C@H](C)[C@@H](O[C@H]2C[C@@](C)(OC)[C@@H](O)[C@H](C)O2)[C@H](C)[C@@H](O[C@@H]2O[C@H](C)C[C@H](N(C)C)[C@H]2O)[C@](C)(O)C[C@@H](C)CN(CCCNC(=S)Nc2ccc(OC)cc2)[C@H](C)[C@@H](O)[C@]1(C)O [Example 102] | 0.0737 (≈ 0.077 µM) | 0.46 (≈ 0.48 µM) | 0.201 (≈ 0.209 µM)
CC[C@H]1OC(=O)[C@H](C)[C@@H](O[C@H]2C[C@@](C)(OC)[C@@H](O)[C@H](C)O2)[C@H](C)[C@@H](O[C@@H]2O[C@H](C)C[C@H](N(C)C)[C@H]2O)[C@](C)(O)C[C@@H](C)CN(CCCNC(=S)Nc2c(F)cccc2F)[C@H](C)[C@@H](O)[C@]1(C)O [Example 104] | 0.0831 (≈ 0.0863 µM) | 0.49 (≈ 0.509 µM) | 0.181 (≈ 0.188 µM)
CC[C@H]1OC(=O)[C@H](C)[C@@H](O[C@H]2C[C@@](C)(OC)[C@@H](O)[C@H](C)O2)[C@H](C)[C@@H](O[C@@H]2O[C@H](C)C[C@H](N(C)C)[C@H]2O)[C@](C)(O)C[C@@H](C)CN(CCCNC(=S)Nc2ccc([N+](=O)[O-])cc2)[C@H](C)[C@@H](O)[C@]1(C)O [Example 105] | 0.0201 (≈ 0.0207 µM) | 0.0184 (≈ 0.0189 µM) | 0.0237 (≈ 0.0244 µM)
